Measurements reported in article PMC6333442, “Conserved allosteric pathways for activation of TRPV3 revealed through engineering vanilloid-sensitivity” (eLife, 2019).
Where “and” joins values, the source holds several entries; their conditions need not be identical. Equal entries are not always repeated.

Columns and labels:
[1] = system: TRPV3-6M/V2P (pore domain of rat TRPV2 in TRPV3-6M); experiment: Two-electrode voltage clamp, TRPV3-6M/V2P chimera in oocytes; format: cell-based, mouse; details: RTx 100 nM
Protocol: All channel constructs were expressed in Xenopus laevis oocytes and studied using the two-electrode voltage clamp technique (TEVC) following 1–4 days of incubation after cRNA injection. The animal care and experimental procedures were performed in accordance with the Guide for the Care and Use of Laboratory Animals and were approved by the Animal Care and Use Committee of the National Institute of Neurological Disorders and Stroke (Animal protocol number 1253–17). Oocytes were removed surgically and incubated with agitation for 1 hr in a solution containing (in mM) 82.5 NaCl, 2.5 KCl, 1 MgCl2, 5 HEPES, pH 7.6 (with NaOH), and collagenase (2 mg/ml; Worthington Biochemical, Lakewood, NJ). Defolliculated oocytes were injected with cRNA for each of the constructs and incubated at 17°C in a solution containing (in mM) 96 NaCl, 2 KCl, 1 MgCl2, 1.8 CaCl2, 5 HEPES, pH 7.6 (with NaOH), and gentamicin (50 μg/ml, GIBCO-BRL, Gaithersburg, MD). Oocyte membrane voltage was controlled using an OC-725C oocyte clamp (Warner Instruments, Hamden, CT). Data were filtered at 1–3 kHz and digitized at 20 kHz using pClamp software (Molecular Devices, Sunnyvale, CA) and a Digidata 1440A digitizer (Axon Instruments). Microelectrode resistances were 0.1–1 MΩ when filled with 3 M KCl. For recording TRP channel currents, the external recording solution contained (in mM) 100 KCl, 10 HEPES, pH 7.6 (with KOH). […]
For temperature-activation experiments, calcium-activated chloride currents were minimized by using calcium-free solution containing 30 µM Caccinh-A01 and recording at negative membrane voltages. Heat stimuli were achieved by passing the external recording solution through glass capillary spirals immersed in a water bath maintained at about 70°C, and recordings were performed during constant perfusion with temperature measured using a thermistor (TA-29, Warner Instruments) located close to the cell. […] The mean I vs T relations were calculated by automatically binning each of the recordings in temperature intervals of 2°C, and averaging a single data point within each interval per cell. […]

[2] = target: T1, TRPV3-5PM (Mus musculus, UniProt Q8K424, A606V/F625L/F656I/F666Y/V587L); format: cell-based
T1 construct: expressed in transfected cells; host or cells: Xenopus laevis oocytes
T1 sequence (Q8K424 1-791 V587L/A606V/F625L/F656I/F666Y): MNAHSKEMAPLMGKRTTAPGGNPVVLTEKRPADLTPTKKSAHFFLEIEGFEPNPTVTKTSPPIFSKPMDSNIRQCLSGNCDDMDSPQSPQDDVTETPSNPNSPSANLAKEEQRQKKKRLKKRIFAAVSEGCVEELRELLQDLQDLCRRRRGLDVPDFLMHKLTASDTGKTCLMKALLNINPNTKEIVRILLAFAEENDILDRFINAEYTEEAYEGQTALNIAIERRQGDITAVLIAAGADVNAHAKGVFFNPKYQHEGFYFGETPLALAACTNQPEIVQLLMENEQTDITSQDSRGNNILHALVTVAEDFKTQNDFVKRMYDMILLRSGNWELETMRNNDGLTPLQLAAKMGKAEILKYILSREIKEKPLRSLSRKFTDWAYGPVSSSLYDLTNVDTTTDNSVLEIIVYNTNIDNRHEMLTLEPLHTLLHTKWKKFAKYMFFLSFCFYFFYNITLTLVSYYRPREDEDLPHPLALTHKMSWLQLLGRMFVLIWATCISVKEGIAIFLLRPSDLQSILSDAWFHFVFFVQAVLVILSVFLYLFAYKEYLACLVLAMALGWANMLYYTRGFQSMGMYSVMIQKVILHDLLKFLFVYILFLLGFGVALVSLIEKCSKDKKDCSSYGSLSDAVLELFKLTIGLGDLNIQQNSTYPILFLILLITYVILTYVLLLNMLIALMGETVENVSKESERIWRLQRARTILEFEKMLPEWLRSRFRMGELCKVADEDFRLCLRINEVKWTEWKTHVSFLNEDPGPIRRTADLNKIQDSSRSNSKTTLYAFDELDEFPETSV
Protocol: All channel constructs were expressed in Xenopus laevis oocytes and studied using the two-electrode voltage clamp technique (TEVC) following 1–4 days of incubation after cRNA injection. The animal care and experimental procedures were performed in accordance with the Guide for the Care and Use of Laboratory Animals and were approved by the Animal Care and Use Committee of the National Institute of Neurological Disorders and Stroke (Animal protocol number 1253–17). Oocytes were removed surgically and incubated with agitation for 1 hr in a solution containing (in mM) 82.5 NaCl, 2.5 KCl, 1 MgCl2, 5 HEPES, pH 7.6 (with NaOH), and collagenase (2 mg/ml; Worthington Biochemical, Lakewood, NJ). Defolliculated oocytes were injected with cRNA for each of the constructs and incubated at 17°C in a solution containing (in mM) 96 NaCl, 2 KCl, 1 MgCl2, 1.8 CaCl2, 5 HEPES, pH 7.6 (with NaOH), and gentamicin (50 μg/ml, GIBCO-BRL, Gaithersburg, MD). Oocyte membrane voltage was controlled using an OC-725C oocyte clamp (Warner Instruments, Hamden, CT). Data were filtered at 1–3 kHz and digitized at 20 kHz using pClamp software (Molecular Devices, Sunnyvale, CA) and a Digidata 1440A digitizer (Axon Instruments). Microelectrode resistances were 0.1–1 MΩ when filled with 3 M KCl. For recording TRP channel currents, the external recording solution contained (in mM) 100 KCl, 10 HEPES, pH 7.6 (with KOH). Experiments were performed at room temperature (~22°C), except as indicated otherwise. […] Current time courses were obtained by stepping membrane voltage every 2 s from a holding potential of 0 mV to either −60 or +60 mV for 100 ms, and plotting the mean steady-state current at the end of each voltage step as a function of total recording time. I-V relations were obtained similarly, but voltage was stepped every 2 s to a different value, in 10 mV increments and starting at −60 mV.

SMILES | channel activation (current response) ([1]; room temperature, ±60 mV) | RTx activation on cooling ([1]; temperature decreased to 10°C) | increase in the apparent affinity for 2-APB [2] | s (slope) of Hill fit, 2-APB concentration-response [2] | EC50 ([2]; read-out: apparent affinity (EC50) for activation by 2-APB) [µM]
C=C(C)[C@]12C[C@@H](C)[C@@]34O[C@](Cc5ccccc5)(O[C@@H]1[C@@H]3C=C(COC(=O)Cc1ccc(O)c(OC)c1)C[C@]1(O)C(=O)C(C)=C[C@@H]41)O2 [RTx, resiniferatoxin] | robustly activated | reduced to baseline levels |  |  | 
NCCOB(c1ccccc1)c1ccccc1 [2-APB, 2-aminoethoxydiphenyl borate] |  |  | 20 fold and > 20 fold and ~ 20 fold | 1.32 | 19 ± 2
